According to paper PMC11302339, “A series of pyrimidine-based antifungals with anti-mold activity disrupt ER function in Aspergillus fumigatus” (Microbiology Spectrum, 2024):
Values after ≈ are worked out from the molar mass of the structure shown. Read-outs that look alike come from different tables or passages of the source. Marks after values point to notes of the source that are not given here.

Columns and labels:
C. neoformans ∆ire1 = test: Susceptibility of ∆ire1 mutant on YPD plates; type: cell-based, Cryptococcus neoformans; conditions: YPD with 4 or 16 µg/mL 1, 30 °C, 72 hours
Method: To determine interactions of 1 with ER stress in Cryptococcus neoformans, an overnight culture of H99 was diluted to 1 × 10^6 CFU/mL, then three 10-fold dilutions were prepared. Three-microliter spots of each cell dilution were plated in triplicate on YPD containing DMSO or 4 µg/mL 1 in combination with DTT, brefeldin A, or tunicamycin. Plates were incubated at 37°C for 72 hours. Images are representative of two independent experiments performed in biological triplicate.
Supplemental Figure 3. 1 interacts with ER stress in C. neoformans but activity is not dependent on Ire1. A) Serial dilutions of C. neoformans H99 on YPD with DMSO or 4 µg/mL 1 combined with ER stresses Brefeldin A (BfA), DTT, or Tunicamycin (Tun). Plates were incubated at 37 °C for 72 hours. Representative images of two independent experiments with three biological replicates each. B) Serial dilutions of C. neoformans H99 wild type and ∆ire1 mutant on YPD containing 4 µg/mL 1, 16 µg/mL 1 or DMSO incubated at 30 °C for 72 hours.
Representative images of two independent experiments with three biological replicates each.
(1 picture or pasted object on this page, not shown here)

A. fumigatus = test: MIC testing in the presence of 10% serum; type: cell-based, Aspergillus fumigatus
Method: (§1) MICs were determined using Clinical and Laboratory Standards Institute guidelines ([48], [49]). All yeasts were cultured overnight in 3 mL YPD at 30°C, then washed twice in sterile phosphate-buffered saline (PBS). Twofold serial dilutions of each drug were prepared in RMPI + MOPS, then 1 × 10^3 cells were added per well. For mold species, wells were inoculated with 1.25 × 10^3 conidia per well. Plates were incubated at 37°C for 24 (Candida spp. and S. cerevisiae), 48 (Aspergillus spp., M. circinelloides, S. apiospermum, and L. prolificans), or 72 (C. neoformans and F. oxysporum) hours. S. cerevisiae BY4743 MICs were tested in YPD due to nutritional requirements of this strain. Each assay was performed in technical duplicate in at least two independent experiments performed on different days.

A. niger = test: MIC testing (CLSI broth dilution); type: cell-based, Aspergillus niger; conditions: strain S007, clinical isolate; no clear well, growth reduced by ≥50% at MEC
Method: as §1

[1] = Protein binding analysis, plasma; type: in vitro ADME; conditions: mouse, mouse plasma diluted 1:10 with PBS
[2] = test system: A. fumigatus collagenase secretion; test: Detection of secreted collagenase by azocoll; type: cell-based, Aspergillus fumigatus
Method: 1 × 10^6 CEA10 conidia/mL were cultured in 25 mL liquid GMM for 18 hours, then mycelia were washed with sterile ddH2O and transferred to 10% FBS-MM and treated with DMSO or the indicated concentration of drugs. Cultures were incubated at 37°C, 250 rpm, for an additional 24 hours, then the supernatant and biomass were collected. One milliliter of supernatant was spun at top speed for 5 min. Azocoll of <50 mesh (Sigma, Cat # 194932) was washed in buffer (50 mM Tris, pH 7.5, 1 mM NaCl, and 0.01% sodium azide) then resuspended to 5 mg/mL. Fifteen microliters of culture supernatant was added to the 2 mL azocoll solution and incubated at 37°C with shaking at 300 rpm for 3 hours in the dark. Reactions were spun at maximum speed for 3 min; 200 µL of supernatant was then transferred to a 96-well plate; and Abs 520 was measured. Biomass was lyophilized, and absorbance readings were normalized to milligram tissue. Data represent the mean and SEM of biological triplicates with technical duplicates except for compounds 5 and 7, which are biological duplicates due to the limited availability of the drug and the required culture size for this assay.

C. neoformans = test: MIC testing in the presence of 10% serum; type: cell-based
Method: as §1

A. terreus = test: MIC testing (CLSI broth dilution); type: cell-based, Aspergillus terreus
Method: as §1

[3] = test system: A. fumigatus CEA10 hyphae; test: Propidium iodide viability staining of treated hyphae; type: cell-based, Aspergillus fumigatus
Method: For PI staining of 1-treated hyphae, 0.5 × 10^3conidia/mL in 100 µL RPMI + MOPS were inoculated into chambers of an eight-well chamber slide and incubated at 37°C for 14 hours. 100 µL of media containing a 2× concentration of 1 or an equivalent amount of DMSO was added to each chamber, and slides were incubated for an additional 24 hours. Media were removed from chambers, replaced with PBS + 40 µM propidium iodide (Invitrogen, Cat # P3566), then slides were incubated at room temperature for 20 min in the dark. Images were acquired on a Nikon epifluorescence microscope with a Nikon DS-Fi1 camera and Nikon Elements image acquisition and analysis software. Images were processed equally with linear brightness and contrast adjustments in Photoshop, only to increase ease of viewing. Representative images of two independent experiments are shown with two biological replicates each.

OC1CC(c2cc(N3CCC(CCc4ccccc4)CC3)ncn2)C1 (stereo not drawn) [compound 1]
susceptibility of ∆ire1 mutant vs wild type (C. neoformans ∆ire1): did not show increased susceptibility
increase in MIC in the presence of 10% serum (A. fumigatus; A. fumigatus): 2 fold
MIC (A. fumigatus; Aspergillus fumigatus, read-out: MIC w/serum): 32 µg/mL
Minimum effective concentration (MEC) (A. niger): 16^b µg/mL
fraction unbound at 6 h, 5 µM ([1]; read-out: Corrected % Protein binding (converted)): 0.0285
fraction unbound at 6 h, 5 µM ([1]; uncorrected (plasma diluted 1:10), read-out: % Protein binding (converted)): 0.227
collagenase secretion ([2]; 1 µg/mL, 24 hours in 10% FBS-MM): did not change collagenase secretion
collagenase secretion ([2]; 2, 4, 8 and 16 µg/mL, 24 hours in 10% FBS-MM, dose-dependent): significantly inhibited
collagenase secretion ([2]; treated with 1/2 MIC of each compound): inhibition of collagenase secretion was similar
increase in MIC in the presence of 10% serum (C. neoformans): 2 fold
MIC (A. terreus; Aspergillus terreus, strain S010, clinical isolate, CLSI conditions): 8 µg/mL (≈ 23.7 µM)
Minimum effective concentration (MEC) (A. terreus; strain S023, clinical isolate, no clear well, growth reduced by ≥50% at MEC): 16^b µg/mL
propidium iodide staining of hyphae ([3]; 8 µg/mL for 24 hours after 14 hours germination): did not show increased staining relative to vehicle-treated controls
propidium iodide staining of hyphae ([3]; 32 µg/mL for 24 hours after 14 hours germination): stained brightly
type of activity against biofilms ([3]; at concentrations 2× the MIC): fungicidal
